Assay results reported in patent US10472347B2, “Aminopyrazine compounds with A2A antagonist properties” (Merck Sharp & Dohme Corp., priority 2014, dated 2019).

biological target: T1, human A2a receptor (Homo sapiens, UniProt P29274); assay: A2a competition binding assay, Scintillation Proximity technology; conditions: membranes from HEK293 cells expressing human A2a receptor; Ki by Cheng-Prusoff equation
T1 construct: purchased Perkin-Elmer RBHA2AM400UA; host or cells: HEK293 cells (membranes)
Method in brief: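 Membranes from HEK293 cells expressing human A2a, adenosine deaminase-treated, incubated 1 h at room temperature with compound (3000 to 0.15 nM) and 0.5 nM tritiated pyrazolotriazolopyrimidine radioligand on WGA SPA beads in Ca/Mg-free PBS + 10 mM MgCl2. Non-specific binding with 1 μM CGS15943; Ki by Cheng-Prusoff.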

T1 sequence (P29274 whole entry): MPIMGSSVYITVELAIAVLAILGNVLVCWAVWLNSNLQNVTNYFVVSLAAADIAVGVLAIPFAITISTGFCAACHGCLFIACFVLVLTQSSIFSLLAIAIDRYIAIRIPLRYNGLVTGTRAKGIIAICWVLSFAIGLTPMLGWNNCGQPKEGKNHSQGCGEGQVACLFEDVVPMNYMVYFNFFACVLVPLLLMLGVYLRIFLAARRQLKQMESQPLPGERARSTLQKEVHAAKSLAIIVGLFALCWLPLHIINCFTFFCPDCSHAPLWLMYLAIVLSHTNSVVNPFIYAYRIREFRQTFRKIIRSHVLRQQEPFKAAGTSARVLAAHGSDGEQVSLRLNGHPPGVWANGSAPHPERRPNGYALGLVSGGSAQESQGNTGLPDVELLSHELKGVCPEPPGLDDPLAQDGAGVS

| Ki [nM] | Structure (SMILES) |
| --- | --- |
| 54 | Nc1nc(-n2nccn2)c(Cl)nc1C(=O)N[C@H](CO)c1ccccn1 [Ex-324, 3-amino-6-chloro-N-[(1S)-2-hydroxy-1-pyridin-2-ylethyl]-5-(2H-1,2,3-triazol-2-yl)pyrazine-2-carboxamide] |
| 337 | Nc1nc(-n2nccn2)c(Cl)nc1C(=O)N[C@H](CO)Cc1c[nH]c2ccccc12 [Ex-325, 3-amino-6-chloro-N-[(1S)-2-hydroxy-1-(1H-indol-3-ylmethyl)ethyl]-5-(2H-1,2,3-triazol-2-yl)pyrazine-2-carboxamide] |
| 6.1 | Cc1cccc(CNC(=O)c2nc(Cl)c(-n3nccn3)nc2N)n1 [Ex-326, 3-amino-6-chloro-N-[(6-methylpyridin-2-yl)methyl]-5-(2H-1,2,3-triazol-2-yl)pyrazine-2-carboxamide] |
| 55.7 | Nc1nc(-n2cncn2)c(Cl)nc1C(=O)NCc1ccccc1C(F)(F)F [Ex-327, 3-amino-6-chloro-5-(1H-1,2,4-triazol-1-yl)-N-[2-(trifluoromethyl)benzyl] pyrazine-2-carboxamide] |
| 627 | Nc1nc(-n2cncn2)c(Cl)nc1C(=O)NCc1ccc(F)cc1F [Ex-328, 3-amino-6-chloro-N-(2,4-difluorobenzyl)-5-(1H-1,2,4-triazol-1-yl)pyrazine-2-carboxamide] |
| 8.6 | Nc1nc(-n2cccn2)c(Cl)nc1C(=O)NCc1ccccc1C(F)(F)F [Ex-329, 3-amino-6-chloro-5-(1H-pyrazol-1-yl)-N-[2-(trifluoromethyl)benzyl] pyrazine-2-carboxamide] |
| 61.5 | Nc1nc(-n2cccn2)c(Cl)nc1C(=O)NCc1ccc(F)cc1 [Ex-330, 3-amino-6-chloro-N-(4-fluorobenzyl)-5-(1H-pyrazol-1-yl)pyrazine-2-carboxamide] |
| 75.4 | Nc1nc(-n2cccn2)c(Cl)nc1C(=O)NCc1ccc(F)cc1F [Ex-331, 3-amino-6-chloro-N-(2,4-difluorobenzyl)-5-(1H-pyrazol-1-yl)pyrazine-2-carboxamide] |
| 4.1 | Nc1nc(-n2cccn2)c(Cl)nc1C(=O)NCc1cccc2cccnc12 [Ex-332, 3-amino-6-chloro-5-(1H-pyrazol-1-yl)-N-(quinolin-8-ylmethyl)pyrazine-2-carboxamide] |
| 57.9 | Nc1nc(-n2cccn2)c(Cl)nc1C(=O)N[C@@H]1CCc2ccccc21 [Ex-333, 3-amino-6-chloro-N-[(1R)-2,3-dihydro-1H-inden-1-yl]-5-(1H-pyrazol-1-yl)pyrazine-2-carboxamide] |
| 13.7 | Cc1cccnc1CNC(=O)c1nc(Cl)c(-n2cccn2)nc1N [Ex-334, 3-amino-6-chloro-N-[(3-methylpyridin-2-yl)methyl]-5-(1H-pyrazol-1-yl)pyrazine-2-carboxamide] |
| 114 | Cc1cnn(-c2nc(N)c(C(=O)NCc3ccccc3C(F)(F)F)nc2Cl)c1 [Ex-335, 3-amino-6-chloro-5-(4-methyl-1H-pyrazol-1-yl)-N-[2-(trifluoromethyl)benzyl] pyrazine-2-carboxamide] |
| 135 | Cc1cnn(-c2nc(N)c(C(=O)N[C@@H]3CCc4ccccc43)nc2Cl)c1 [Ex-336, 3-amino-6-chloro-N-[(1R)-2,3-dihydro-1H-inden-1-yl]-5-(4-methyl-1H-pyrazol-1-yl)pyrazine-2-carboxamide] |
| 11.2 | Cc1cnn(-c2nc(N)c(C(=O)NCc3ncccc3C)nc2Cl)c1 [Ex-337, 3-amino-6-chloro-5-(4-methyl-1H-pyrazol-1-yl)-N-[(3-methylpyridin-2-yl)methyl]pyrazine-2-carboxamide] |
| 133 | Cc1ccn(-c2nc(N)c(C(=O)NCc3ccccc3C(F)(F)F)nc2Cl)n1 [Ex-338, 3-amino-6-chloro-5-(3-methyl-1H-pyrazol-1-yl)-N-[2-(trifluoromethyl)benzyl] pyrazine-2-carboxamide] |
| 117 | Cc1ccn(-c2nc(N)c(C(=O)N[C@@H]3CCc4ccccc43)nc2Cl)n1 [Ex-339, 3-amino-6-chloro-N-[(1R)-2,3-dihydro-1H-inden-1-yl]-5-(3-methyl-1H-pyrazol-1-yl)pyrazine-2-carboxamide] |
| 12.8 | Cc1cnn(-c2nc(N)c(C(=O)NCc3cccc4cccnc34)nc2Cl)c1 [Ex-340, 3-amino-6-chloro-5-(4-methyl-1H-pyrazol-1-yl)-N-(quinolin-8-ylmethyl)pyrazine-2-carboxamide] |
| 105 | Cc1cnn(-c2nc(N)c(C(=O)NCc3ncccc3C)nc2C)c1 [Ex-341, 3-amino-6-methyl-5-(4-methyl-1H-pyrazol-1-yl)-N-[(3-methylpyridin-2-yl)methyl]pyrazine-2-carboxamide] |
| 122 | Cc1cnn(-c2nc(N)c(C(=O)NCc3nccc4ccccc34)nc2C)c1 [Ex-342, 3-amino-N-(isoquinolin-1-ylmethyl)-6-methyl-5-(4-methyl-1H-pyrazol-1-yl)pyrazine-2-carboxamide] |
| 35.9 | Cc1cnn(-c2nc(N)c(C(=O)NCc3ncccc3C(F)(F)F)nc2Cl)c1 [Ex-343, 3-amino-6-chloro-5-(4-methyl-1H-pyrazol-1-yl)-N-{[3-(trifluoromethyl)pyridin-2-yl]methyl}pyrazine-2-carboxamide] |

| Ki [nM] | Structure (SMILES) |
| --- | --- |
| 31 | Cc1cnn(-c2nc(N)c(C(=O)NCc3ccc(F)cc3F)nc2Cl)n1 [Ex-344, 3-amino-6-chloro-N-(2,4-difluorobenzyl)-5-(4-methyl-2H-1,2,3-triazol-2-yl)pyrazine-2-carboxamide] |
| 6 | Cc1cnn(-c2nc(N)c(C(=O)NCc3ncccc3C)nc2Cl)n1 [Ex-345, 3-amino-6-chloro-N-[(3-methylpyridin-2-yl)methyl]-5-(4-methyl-2H-1,2,3-triazol-2-yl)pyrazine-2-carboxamide] |
| 397 | Cc1cnn(-c2nc(N)c(C(=O)NC3CCNc4ccccc43)nc2Cl)n1 (stereo not drawn) [Ex-346, 3-amino-6-chloro-5-(4-methyl-2H-1,2,3-triazol-2-yl)-N-(1,2,3,4-tetrahydroquinolin-4-yl)pyrazine-2-carboxamide] |
| 46.4 | Cc1nc(C(=O)NCc2cccc3cccnc23)c(N)nc1-n1cccn1 [Ex-347, 3-amino-6-methyl-5-(1H-pyrazol-1-yl)-N-(quinolin-8-ylmethyl)pyrazine-2-carboxamide] |
| 10.1 | Cc1cnn(-c2nc(N)c(C(=O)NCc3cccc4cccnc34)nc2Cl)n1 [Ex-348, 3-amino-6-chloro-5-(4-methyl-2H-1,2,3-triazol-2-yl)-N-(quinolin-8-ylmethyl)pyrazine-2-carboxamide] |
| 180 | Cc1cnn(-c2nc(N)c(C(=O)N[C@H](CO)c3ccccc3)nc2Cl)c1 [Ex-349, 3-amino-6-chloro-N-[(1S)-2-hydroxy-1-phenylethyl]-5-(4-methyl-1H-pyrazol-1-yl)pyrazine-2-carboxamide] |
| 630 | Cc1cnn(-c2nc(N)c(C(=O)NCc3ccc4[nH]ccc4c3)nc2Cl)c1 [Ex-350, 3-amino-6-chloro-N-(1H-indol-5-ylmethyl)-5-(4-methyl-1H-pyrazol-1-yl)pyrazine-2-carboxamide] |
| 315 | Cc1cnn(-c2nc(N)c(C(=O)NCc3nc4ccccc4n3C)nc2Cl)c1 [Ex-351, 3-amino-6-chloro-N-[(1-methyl-1H-benzimidazol-2-yl)methyl]-5-(4-methyl-1H-pyrazol-1-yl)pyrazine-2-carboxamide] |
| 51.1 | Cc1cnn(-c2nc(N)c(C(=O)NCc3cccc4cc[nH]c34)nc2Cl)c1 [Ex-352, 3-amino-6-chloro-N-(1H-indol-7-ylmethyl)-5-(4-methyl-1H-pyrazol-1-yl)pyrazine-2-carboxamide] |
| 49 | Cc1cnn(-c2nc(N)c(C(=O)NCc3cccc4[nH]ccc34)nc2Cl)c1 [Ex-353, 3-amino-6-chloro-N-(1H-indol-4-ylmethyl)-5-(4-methyl-1H-pyrazol-1-yl)pyrazine-2-carboxamide] |
| 390 | Cc1cnn(-c2nc(N)c(C(=O)NCc3ccc4cc[nH]c4c3)nc2Cl)c1 [Ex-354, 3-amino-6-chloro-N-(1H-indol-6-ylmethyl)-5-(4-methyl-1H-pyrazol-1-yl)pyrazine-2-carboxamide] |
| 543 | Cc1cnn(-c2nc(N)c(C(=O)NCc3nc4ccccc4s3)nc2Cl)c1 [Ex-355, 3-amino-N-(1,3-benzothiazol-2-ylmethyl)-6-chloro-5-(4-methyl-1H-pyrazol-1-yl)pyrazine-2-carboxamide] |
| 4.3 | Cc1cnn(-c2nc(N)c(C(=O)NCc3nc4ccccc4o3)nc2Cl)c1 [Ex-356, 3-amino-N-(1,3-benzoxazol-2-ylmethyl)-6-chloro-5-(4-methyl-1H-pyrazol-1-yl)pyrazine-2-carboxamide] |
| 69.4 | Cc1cnn(-c2nc(N)c(C(=O)NCc3cccc4nccnc34)nc2Cl)c1 [Ex-357, 3-amino-6-chloro-5-(4-methyl-1H-pyrazol-1-yl)-N-(quinoxalin-5-ylmethyl)pyrazine-2-carboxamide] |
| 73.3 | Cc1cnn(-c2nc(N)c(C(=O)NCc3ccccc3)nc2Cl)c1 [Ex-358, 3-amino-N-benzyl-6-chloro-5-(4-methyl-1H-pyrazol-1-yl)pyrazine-2-carboxamide] |
| 90 | Cc1cnn(-c2nc(N)c(C(=O)NCc3cn4ccsc4n3)nc2Cl)c1 [Ex-359, 3-amino-6-chloro-N-(imidazo[2,1-b][1,3]thiazol-6-ylmethyl)-5-(4-methyl-1H-pyrazol-1-yl)pyrazine-2-carboxamide] |
| 615 | Cc1cnn(-c2nc(N)c(C(=O)NCc3cnc4ccccn34)nc2Cl)c1 [Ex-360, 3-amino-6-chloro-N-(imidazo[1,2-a]pyridin-3-ylmethyl)-5-(4-methyl-1H-pyrazol-1-yl)pyrazine-2-carboxamide] |
| 63.2 | Cc1cnn(-c2nc(N)c(C(=O)NCc3cncc4ccccc34)nc2Cl)c1 [Ex-361, 3-amino-6-chloro-N-(isoquinolin-4-ylmethyl)-5-(4-methyl-1H-pyrazol-1-yl)pyrazine-2-carboxamide] |
| 143 | Cc1cnn(-c2nc(N)c(C(=O)NCc3cnn4ccccc34)nc2Cl)c1 [Ex-362, 3-amino-6-chloro-5-(4-methyl-1H-pyrazol-1-yl)-N-(pyrazolo[1,5-a]pyridin-3-ylmethyl)pyrazine-2-carboxamide] |
